Several values for one entry are separate records, joined by “and”; a condition that tells them apart may be missing. Equal values may be shown once. Read-outs that look alike come from different tables or passages of the source.
Columns and labels:
[1] = molecular target: T1, mTOR (Homo sapiens, UniProt P42345); test: In vitro mTOR kinase inhibition assay (SelectScreen Z'-LYTE), with or without 10 µM FKBP12; assay type: biochemical; settings: for residual kinase activity (mTOR): listed as RL-1
T1 construct: We performed in vitro kinase assays with purified mTOR protein; purchased SelectScreen Services (Thermo Fisher Scientific)
T1 sequence (P42345 1360-2549 limits assumed): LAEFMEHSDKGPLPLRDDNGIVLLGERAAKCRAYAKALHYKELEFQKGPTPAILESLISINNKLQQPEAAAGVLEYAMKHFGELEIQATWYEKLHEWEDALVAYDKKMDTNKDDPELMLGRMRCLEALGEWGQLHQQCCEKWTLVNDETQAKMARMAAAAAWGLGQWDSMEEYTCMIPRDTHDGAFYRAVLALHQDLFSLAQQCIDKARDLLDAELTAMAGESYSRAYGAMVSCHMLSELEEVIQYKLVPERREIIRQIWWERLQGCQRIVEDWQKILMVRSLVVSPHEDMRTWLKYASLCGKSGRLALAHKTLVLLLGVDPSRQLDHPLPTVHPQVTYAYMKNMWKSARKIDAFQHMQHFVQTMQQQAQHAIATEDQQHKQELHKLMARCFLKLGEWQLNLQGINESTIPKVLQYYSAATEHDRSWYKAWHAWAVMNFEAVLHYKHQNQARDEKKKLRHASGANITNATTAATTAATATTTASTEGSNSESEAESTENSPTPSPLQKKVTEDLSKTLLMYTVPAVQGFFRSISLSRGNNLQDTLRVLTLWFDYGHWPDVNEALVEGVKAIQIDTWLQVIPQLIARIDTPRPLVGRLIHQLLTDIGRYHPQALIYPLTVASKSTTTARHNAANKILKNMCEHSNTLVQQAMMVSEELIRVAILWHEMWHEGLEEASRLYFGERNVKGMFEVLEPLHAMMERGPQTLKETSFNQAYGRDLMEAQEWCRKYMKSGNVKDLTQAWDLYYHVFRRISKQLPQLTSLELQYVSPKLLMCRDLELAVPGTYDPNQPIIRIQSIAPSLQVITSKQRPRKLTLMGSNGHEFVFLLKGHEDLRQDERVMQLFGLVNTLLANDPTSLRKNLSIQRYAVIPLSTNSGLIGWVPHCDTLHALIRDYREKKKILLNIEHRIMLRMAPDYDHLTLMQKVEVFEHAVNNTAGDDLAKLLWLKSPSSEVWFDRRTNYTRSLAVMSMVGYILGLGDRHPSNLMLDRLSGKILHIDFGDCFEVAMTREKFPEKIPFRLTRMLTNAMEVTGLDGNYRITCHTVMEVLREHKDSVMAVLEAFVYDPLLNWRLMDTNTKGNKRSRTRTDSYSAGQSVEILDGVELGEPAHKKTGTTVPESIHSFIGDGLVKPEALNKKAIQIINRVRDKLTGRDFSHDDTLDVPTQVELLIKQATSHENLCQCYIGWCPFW
Protocol: In vitro kinase inhibition assays were performed by SelectScreen Services (Thermo Fisher Scientific) using either Z’-LYTE (mTOR, Src, Csk, EGFR, HER2 and HGK), Adapta (LRRK2) or LanthaScreen (DDR2) assay format (standardized protocols can be accessed on the SelectScreen website: https://www.thermofisher.com/us/en/home/products-and-services/services/custom-services/screening-and-profiling-services/selectscreen-profiling-service/selectscreen-kinase-profiling-service.html. When indicated, recombinant FKBP12 protein was added to the assay mixture to a final concentration of 10 µM.

[2] = system: human PBMCs; test: IL-2 secretion of stimulated PBMCs (sandwich ELISA); assay type: cell-based; design: unit not given here
[3] = system: mTOR; test: mTOR signalling in mouse whole brain and skeletal muscle after single i.p. dose (immunoblot, insulin stimulated); assay type: in vivo; settings: RL1 1 mg/kg, RB 40 mg/kg, insulin 250 mU, listed as RL1
Protocol: Whole brain and skeletal muscle were analyzed by immunoblot.

## CO[C@H]1C[C@@H]2CC[C@@H](C)[C@@](O)(O2)C(=O)C(=O)N2CCCC[C@H]2C(=O)O[C@H]([C@H](C)C[C@@H]2CC[C@@H](OCCOCc3cn(CCOCCOCCOCCOCCOCCOCCOCCOCCC(=O)NCCCCn4nc(-c5ccc6oc(N)nc6c5)c5c(N)ncnc54)nn3)[C@H](OC)C2)CC(=O)[C@H](C)/C=C(\C)[C@@H](O)[C@@H](OC)C(=O)[C@H](C)C[C@H](C)/C=C/C=C/C=C/1C [RapaLink-1]
[1]; 0.00495 nM drug, +FKBP
  residual kinase activity (mTOR): 99
[1]; 0.00495 nM drug, +FKBP, read-out: residual kinase activity (mTOR)
  remaining activity at 4.95 pM: 95%
[1]; 0.00495 nM drug, no FKBP
  residual kinase activity (mTOR): 100
[1]; 0.00495 nM drug, no FKBP, read-out: residual kinase activity (mTOR)
  remaining activity at 4.95 pM: 96%
[1]; 0.0152 nM drug, +FKBP
  residual kinase activity (mTOR): 103
[1]; 0.0152 nM drug, +FKBP, read-out: residual kinase activity (mTOR)
  remaining activity at 15.2 pM: 98%
[1]; 0.0152 nM drug, no FKBP
  residual kinase activity (mTOR): 101
[1]; 0.0152 nM drug, no FKBP, read-out: residual kinase activity (mTOR)
  remaining activity at 15.2 pM: 100%
[1]; 0.0457 nM drug, +FKBP
  residual kinase activity (mTOR): 103
[1]; 0.0457 nM drug, +FKBP, read-out: residual kinase activity (mTOR)
  remaining activity at 45.7 pM: 102%
[1]; 0.0457 nM drug, no FKBP
  residual kinase activity (mTOR): 99
[1]; 0.0457 nM drug, no FKBP, read-out: residual kinase activity (mTOR)
  remaining activity at 45.7 pM: 101%
[1]; 0.137 nM drug, +FKBP
  residual kinase activity (mTOR): 99
[1]; 0.137 nM drug, +FKBP, read-out: residual kinase activity (mTOR)
  remaining activity at 0.000137 µM: 101%
[1]; 0.137 nM drug, no FKBP
  residual kinase activity (mTOR): 96
[1]; 0.137 nM drug, no FKBP, read-out: residual kinase activity (mTOR)
  remaining activity at 0.000137 µM: 97%
[1]; 0.412 nM drug, +FKBP, read-out: residual kinase activity (mTOR)
  remaining activity at 0.000412 µM: 97%
[1]; 0.412 nM drug, no FKBP
  residual kinase activity (mTOR): 92
[1]; 0.412 nM drug, no FKBP, read-out: residual kinase activity (mTOR)
  remaining activity at 0.000412 µM: 95%
[1]; 1.23 nM drug, +FKBP
  residual kinase activity (mTOR): 86
[1]; 1.23 nM drug, +FKBP, read-out: residual kinase activity (mTOR)
  remaining activity at 0.00123 µM: 89%
[1]; 1.23 nM drug, no FKBP
  residual kinase activity (mTOR): 83
[1]; 1.23 nM drug, no FKBP, read-out: residual kinase activity (mTOR)
  remaining activity at 0.00123 µM: 87%
[1]; 11.1 nM drug, +FKBP
  residual kinase activity (mTOR): 17
[1]; 11.1 nM drug, +FKBP, read-out: residual kinase activity (mTOR)
  remaining activity at 0.0111 µM: 14%
[1]; 11.1 nM drug, no FKBP, read-out: residual kinase activity (mTOR)
  remaining activity at 0.0111 µM: 15%
[1]; 33.3 nM drug, +FKBP
  residual kinase activity (mTOR): 4
[1]; 33.3 nM drug, +FKBP, read-out: residual kinase activity (mTOR)
  remaining activity at 0.0333 µM: 2%
[1]; 33.3 nM drug, no FKBP
  residual kinase activity (mTOR): 2
[1]; 33.3 nM drug, no FKBP, read-out: residual kinase activity (mTOR)
  remaining activity at 0.0333 µM: 3%
[1]; 100 nM drug, +FKBP
  residual kinase activity (mTOR): 2
[1]; 100 nM drug, +FKBP, read-out: residual kinase activity (mTOR)
  remaining activity at 0.1 µM: 3%
[1]; […] drug, +FKBP
  residual kinase activity (mTOR): 57
[1]; […] drug, +FKBP, read-out: residual kinase activity (mTOR)
  remaining activity at […]: 55%
[1]; […] drug, no FKBP
  residual kinase activity (mTOR): 54
[1]; […] drug, no FKBP, read-out: residual kinase activity (mTOR)
  remaining activity at […]: 56%
[1]; purified mTOR, whether FKBP12 was present
  IC50 for mTOR kinase activity: identical half-maximal inhibitory concentration (IC50) values as MLN0128
[2]; 0.005081 nM RapaLink-1, +10 μM RapaBlock
  IL-2 secretion: 4596.86 and 6574.88 and 5859.62
[2]; 0.005081 nM RapaLink-1, No RapaBlock
  IL-2 secretion: 6581.16 and 6332.27 and 5840.51
[2]; 0.015242 nM RapaLink-1, +10 μM RapaBlock
  IL-2 secretion: 4621.98 and 5392.72 and 5694.48
[2]; 0.015242 nM RapaLink-1, No RapaBlock
  IL-2 secretion: 6342.48 and 6161.37 and 6860.66
[2]; 0.045725 nM RapaLink-1, +10 μM RapaBlock
  IL-2 secretion: 5493.48 and 5276.26 and 6056.43
[2]; 0.045725 nM RapaLink-1, No RapaBlock
  IL-2 secretion: 6261.35 and 6059.04 and 6285.42
[2]; 0.137174 nM RapaLink-1, +10 μM RapaBlock
  IL-2 secretion: 4501.07 and 6329.65 and 6310.02
[2]; 0.137174 nM RapaLink-1, No RapaBlock
  IL-2 secretion: 6367.08 and 6367.6 and 6351.64
[2]; 0.411523 nM RapaLink-1, +10 μM RapaBlock
  IL-2 secretion: 5797.33 and 5310.02 and 6522.53
[2]; 0.411523 nM RapaLink-1, No RapaBlock
  IL-2 secretion: 6337.77 and 6266.32 and 6532.48
[2]; 1.23457 nM RapaLink-1, +10 μM RapaBlock
  IL-2 secretion: 5361.84 and 6623.29 and 6201.15
[2]; 1.23457 nM RapaLink-1, No RapaBlock
  IL-2 secretion: 2712.8 and 2327.56 and 3337.76
[2]; 3.7037 nM RapaLink-1, +10 μM RapaBlock
  IL-2 secretion: 5860.66 and 6735.83 and 6648.15
[2]; 3.7037 nM RapaLink-1, No RapaBlock
  IL-2 secretion: 362.628 and 408.689 and 558.388
[2]; 11.1111 nM RapaLink-1, +10 μM RapaBlock
  IL-2 secretion: 4848.63 and 4895.73 and 6502.64
[2]; 11.1111 nM RapaLink-1, No RapaBlock
  IL-2 secretion: 251.4 and 437.215 and 324.156
[2]; 33.3333 nM RapaLink-1, +10 μM RapaBlock
  IL-2 secretion: 4350.33 and 5093.33 and 4877.15
[2]; 33.3333 nM RapaLink-1, No RapaBlock
  IL-2 secretion: 275.478 and 292.227 and 264.486
[2]; 100 nM RapaLink-1, +10 μM RapaBlock
  IL-2 secretion: 2837.9 and 2542.68 and 2708.61
[2]; 100 nM RapaLink-1, No RapaBlock
  IL-2 secretion: 278.356 and 273.907 and 280.974
[3]; 4h
  p-4EBP1 Brain, fold relative to no insulin, normalized to GAPDH: 1.26 and 1.03 and 0.71
  p-4EBP1 Muscle, fold relative to no insulin, normalized to GAPDH: 1 and 1.04 and 1.12
  p-RPS6 Brain, fold relative to no insulin, normalized to GAPDH: 1.23 and 1.15 and 1.11
  p-RPS6 Muscle, fold relative to no insulin, normalized to GAPDH: 0.9 and 1.3 and 1.14
[3]; 24h
  p-4EBP1 Brain, fold relative to no insulin, normalized to GAPDH: 0.98 and 0.96 and 0.78
  p-4EBP1 Muscle, fold relative to no insulin, normalized to GAPDH: 1.18 and 1.08 and 1.1
  p-RPS6 Brain, fold relative to no insulin, normalized to GAPDH: 0.89 and 0.78 and 1.52
